From patent US20130136778A1, “PTEROSTILBENE (PTER) FOR USE IN THE PREVENTION AND/OR TREATMENT OF SKIN DISEASES, DAMAGES OR INJURIES” (GREEN MOLECULAR, S.L., priority 2009, published 2013)

Key:
[1] = system: SKH-1 mice; assay: Skinfold thickness (edema) after acute UV-B exposure of 360 mJ/cm2; type: in vivo
Method: UVB Acute exposure protocols were used: Mice underwent a single exposure of 360 mJ/cm2. The study was conducted at 24 hours after exposure. This protocol was used to evaluate the photoprotective effect of the compounds studied. With the same acute-phase protocol mice from all groups were irradiated. Subsequently mice remained in the animal storage area for a week to see the evolution of the inflammatory response and edema. For the UVB exposure studies (chronic or acute) a topical administration to the back of the mouse was conducted. The commercial sunscreens were applied directly on the mouse. The polyphenols in the study were administered in a liposomal preparation diluted 1:1 with Carbopol polymer which will be the vehicle for these liposomes. Each polyphenol dose administered was 10 μmol/mouse, as free acid. • 1. Edema formation: skinfold thickness was determined with a caliper 24 hours after the first exposure. • 2. Study of the thickness of the epidermis after exposure to acute irradiation (360 mj/cm^2 24 h hours and 7 days after irradiation). • 3. Histological studies: measuring, in the pictures obtained from histological sections, the thickness of the epidermis. With the purpose of assessing the effects of the photoprotective compounds studied, female mice SKH-1 of between 6-8 weeks old were subjected to a single exposure of 360 mJ/cm. For the ultraviolet B (UVB) irradiation exposure, a camera specifically prepared, available at our laboratory was used (Crosslinker; Bio-Link BLX 254) equipped with 5 tubes that produce 80% of the UVB radiation, with a maximum emission of 312 nm. The two protocols of UV-B exposure used were: • Intense exposure after a single exposure of 360 mJ/cm^2. The study was carried out 24 hours after the exposure. This protocol was used to assess the photoprotective effects of the compounds studied. • Intense exposure after a single exposure of 360 mJ/cm^2. The study was carried out 1 week after the exposure. The mice were kept in the shed for a week to observe the evolution of the inflammatory and edematous response. As reference, several commercial photoprotective products were used ([…] Heliocare). The reference compounds as well as the products object of this study, were applied on the back of the mice for 20 minutes after or 20 minutes before the irradiation with UV-B, to determine if the reaction observed was due to an effect of the solar filter or not. […] The skinfold was measured by making a fold on the skin from the back of the mice, from the axillae to the hips; the fold was measured with a vernier caliper. The increase in the fold was calculated by the difference between the initial point, before the effects of the reaction, and the thickness in each point.

[2] = system: SKH-1 mice; assay: Photocarcinogenesis: chronic exposure to UV-B, precancerous lesions/tumors per mouse; type: in vivo; conditions: after 30 weeks of chronic exposure to UV-B
Excerpt: The role of UV-B radiation in tumor formation is well known. The continuous exposure to UV-B promotes the formation of oxidative/nitrosative stress, along with alterations in DNA, proteins, etc. that activates various transcription factors (among them NF-κB and AP-1), increase in the telomerase activity, stress, etc. which in turn induces carcinogenesis.
The mice chosen for this study were SKH-1.
The protocol used was the standardized protocol, whereby several mice were irradiated three times per week with a dose of 180 mJ/cm^2 with exposures for 24 weeks; however, […], in order to obtain more evidence of the photoprotector effect on the different treatments used.
The dose of exposure was 180 mJ/cm2, since it had been determined in previous trials that this was the minimal erythemic dose (MED) for this type of rodent.
A range of different commercial photoprotectors were included in this study: • Vichy: Capital Soleil SPF-50+(Vichy Laboratoires). • Isdin: Photoprotector Isdin Extrem (SPF-40 (Isdin SA) • Heliocare: Heliocare gel Protection Ultra 90 (Difa Cooper S.P.A.)
Both the reference compounds and the ones subject of this study were applied to the back of the mice for 20 minutes prior to their exposure to UV-B. […]
During the photocarcinogenesis process, the presence of different tumors was followed and quantified throughout the process. […]

`COc1cc(/C=C/c2ccc(O)cc2)cc(OC)c1` [PTER, 3,5-dimethoxy-4′-hydroxy-trans-resveratrol] was tested, and the “formation of the edema (thickness of the skin) after severe UV-B exposure” value ([1]; FIG. 1) was “the formation of the edema was reduced”, the “skinfold thickness 24 h after irradiation, applied after UVB” value ([1]; FIG. 1, applied 20 min after) was “more efficient for the treatment of skin diseases, damages or injuries due to radiation, when applied after the exposure to UVB, than the commercial creams (Vichy, Heliocare and Isdin) and that RESV” and the “skinfold thickness 24 h after irradiation, applied before UVB” value ([1]; FIG. 1, applied 20 min before) was “more efficient as photoprotector, when applied before the exposure to UVB, than the commercial creams (Vichy, Heliocare and Isdin) and that RESV”. The mice presenting lesions [2] was 10%.
